The target of one assay is T1, CRF1R receptor (Homo sapiens, UniProt P34998).
T1 construct: host or cells: CHO-K1 clone 2
T1 sequence (P34998 24-415): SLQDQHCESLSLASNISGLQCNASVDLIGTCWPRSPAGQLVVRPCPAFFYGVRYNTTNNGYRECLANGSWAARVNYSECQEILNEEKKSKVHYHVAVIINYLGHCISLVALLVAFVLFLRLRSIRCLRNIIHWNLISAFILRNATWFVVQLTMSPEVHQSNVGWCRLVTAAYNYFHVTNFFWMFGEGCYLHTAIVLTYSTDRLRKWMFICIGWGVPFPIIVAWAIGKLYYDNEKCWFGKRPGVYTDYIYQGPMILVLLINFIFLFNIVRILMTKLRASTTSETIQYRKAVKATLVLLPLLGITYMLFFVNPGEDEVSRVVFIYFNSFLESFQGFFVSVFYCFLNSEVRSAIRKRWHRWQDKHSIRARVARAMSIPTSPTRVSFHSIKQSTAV
Briefly: cAMP activity at anti-target CRF1R, CHO-K1 cell line clone 2 (Example 19.10). The assay is classed as cell-based. Particulars: CRF1R CHO-K1 clone 2; for EC50: 0% HSA, read-out: EC50 [nM] 0% HSA; for Emax: 100% = Sauvagine at 100 nM. The method in brief: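 A CRF1R-overexpressing CHO-K1 line (clone 2) was grown in F12/10% FBS/G418 and frozen in aliquots before use. The cAMP assay followed the preceding procedure, with 100% activation defined by Sauvagine at 100 nM.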

The target in the next assay is T2, human CRF2α receptor (Homo sapiens, UniProt Q13324).
T2 construct: expressed in transfected cells; host or cells: TeloHEAC
T2 sequence (Q13324 1-411): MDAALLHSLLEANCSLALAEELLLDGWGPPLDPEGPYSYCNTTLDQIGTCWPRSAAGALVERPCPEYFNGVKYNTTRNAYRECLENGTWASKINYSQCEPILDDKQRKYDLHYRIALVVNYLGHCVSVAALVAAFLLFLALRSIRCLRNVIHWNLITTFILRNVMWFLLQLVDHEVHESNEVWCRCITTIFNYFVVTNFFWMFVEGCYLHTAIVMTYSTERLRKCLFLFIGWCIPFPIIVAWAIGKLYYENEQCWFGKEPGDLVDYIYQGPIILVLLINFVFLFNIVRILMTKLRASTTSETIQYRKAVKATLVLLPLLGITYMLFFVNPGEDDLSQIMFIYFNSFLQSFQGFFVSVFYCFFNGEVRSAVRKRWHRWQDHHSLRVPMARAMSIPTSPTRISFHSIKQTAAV
Briefly: cAMP agonism at human CRF2 α receptor in TeloHEAC cells (Example 7). The class given is cell-based. Particulars: cAMP HTRF, TeloHEAC cells stably expressing human CRF2 α. The method in brief:
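Percent activation was referenced to 1000 nM UCN2 (100%), and EC50 values taken as concentrations giving half of maximal response. The read-out was a homogeneous time-resolved fluorescence cAMP kit, fluorescence ratio 665/620 nm. Thawed cells (2000/well) saw compound for 30 min at RT in buffer with 2 mM IBMX and 0%/0.1% HSA.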

Setting [1] is: 0% HSA, read-out: EC50 [nM], 0% HSA.
[2] abbreviates: 0.1% HSA, read-out: EC50 [nM], 0.1% HSA.

Where two headings read alike, the source gives them in different places. Starred links: 1 amine or outer side, 2 acyl side, 3 side chain; linkers in the order of their positions; H or OH if unused. Non-standard residues stand in square brackets, D forms with d. Residues, ends and D or L forms follow the SMILES beside them. Groups on a side chain read outwards from the residue. *: point of attachment. C18 diacid = O=C(O)CCCCCCCCCCCCCCCCC(=O)*; γGlu = O=C(O)[C@H](CCC(=O)[*:2])N[*:1]; AEEA = NCCOCCOCC(=O)O; Aib = CC(C)(N)C(=O)O

Turning to `CC[C@H](C)[C@H](N)C(=O)N[C@H](C(=O)N[C@@H](CC(C)C)C(=O)N[C@@H](CO)C(=O)N[C@@H](CC(C)C)C(=O)N[C@@H](CC(=O)O)C(=O)N[C@@H](C(=O)N1CCC[C@H]1C(=O)N[C@H](C(=O)N[C@@H](CCCCN)C(=O)N[C@@H](CC(C)C)C(=O)N[C@@H](CCCCNC(=O)COCCOCCNC(=O)COCCOCCNC(=O)CC[C@H](NC(=O)CCCCCCCCCCCCCCCCC(=O)O)C(=O)O)C(=O)N[C@@H](CCC(N)=O)C(=O)N[C@H](C(=O)N[C@@H](CC(C)C)C(=O)N[C@@H](CC(C)C)C(=O)N[C@@H](CCCCN)C(=O)N[C@@H](CCC(N)=O)C(=O)N[C@@H](CCC(=O)O)C(=O)N[C@@H](CCCNC(=N)N)C(=O)N[C@@H](CCC(N)=O)C(=O)N[C@@H](CCCCN)C(=O)N[C@@H](CCCCN)C(=O)N[C@@H](CCC(N)=O)C(=O)N[C@@H](CCCNC(=N)N)C(=O)N[C@@H](CCC(=O)O)C(=O)N[C@@H](CCC(N)=O)C(=O)N[C@@H](C)C(=O)N[C@@H](CCC(=O)O)C(=O)N[C@H](C(=O)N[C@@H](CC(N)=O)C(=O)N[C@@H](CCCCN)C(=O)N[C@@H](CCC(N)=O)C(=O)N[C@H](C(=O)N[C@@H](CC(C)C)C(=O)N[C@@H](C)C(=O)N[C@@H](CCC(N)=O)C(=O)N[C@H](C(N)=O)C(C)C)[C@@H](C)CC)[C@@H](C)O)[C@@H](C)CC)[C@@H](C)CC)C(C)C)C(C)C` [compound 102] (H-IVLSLD[dV]PIKLK([AEEA-AEEA-γGlu-C18 diacid])QILLKQERQKKQREQAETNKQILAQV-NH2; N-terminus assumed), on CRF1R receptor, the 50% effective concentration (EC50) is more than 100 nM and the maximal effect (Emax) amounted to 9%. The EC50 at human CRF2α receptor (setting [1]) was 0.07 nM.
Regarding `CC[C@H](C)[C@H](N)C(=O)N[C@H](C(=O)N[C@@H](CC(C)C)C(=O)N[C@@H](CO)C(=O)N[C@@H](CC(C)C)C(=O)N[C@@H](CC(=O)O)C(=O)N[C@H](C(=O)N1CCC[C@H]1C(=O)N[C@H](C(=O)N[C@@H](CCCCN)C(=O)N[C@@H](CC(C)C)C(=O)N[C@@H](CCCCNC(=O)COCCOCCNC(=O)COCCOCCNC(=O)CC[C@H](NC(=O)CCCCCCCCCCCCCCCCC(=O)O)C(=O)O)C(=O)N[C@@H](CCC(N)=O)C(=O)N[C@H](C(=O)N[C@@H](CC(C)C)C(=O)N[C@@H](CC(C)C)C(=O)N[C@@H](CCC(=O)O)C(=O)N[C@@H](CCC(N)=O)C(=O)N[C@@H](CCC(=O)O)C(=O)N[C@@H](CCCNC(=N)N)C(=O)N[C@@H](CCC(N)=O)C(=O)N[C@@H](CCCCN)C(=O)NC(C)(C)C(=O)N[C@@H](CCC(N)=O)C(=O)N[C@@H](CCCNC(=N)N)C(=O)N[C@@H](CCC(=O)O)C(=O)N[C@@H](CCC(N)=O)C(=O)N[C@@H](C)C(=O)N[C@@H](CCC(=O)O)C(=O)N[C@H](C(=O)N[C@@H](CC(N)=O)C(=O)N[C@@H](CCCCN)C(=O)N[C@@H](CCC(N)=O)C(=O)N[C@H](C(=O)N[C@@H](CC(C)C)C(=O)N[C@@H](C)C(=O)N[C@@H](CCC(N)=O)C(=O)N[C@H](C(N)=O)C(C)C)[C@@H](C)CC)[C@@H](C)O)[C@@H](C)CC)[C@@H](C)CC)C(C)C)C(C)C` [compound 103] (H-IVLSLDVPIKLK([AEEA-AEEA-γGlu-C18 diacid])QILLEQERQK[Aib]QREQAETNKQILAQV-NH2), at CRF1R receptor, the EC50 was more than 100 nM and the Emax came to 14%. For the same compound, the EC50 at human CRF2α receptor (setting [1]) amounted to 0.84 nM.
For the compound `CC[C@H](C)[C@H](N)C(=O)N[C@H](C(=O)N[C@@H](CC(C)C)C(=O)N[C@@H](CO)C(=O)N[C@@H](CC(C)C)C(=O)N[C@@H](CC(=O)O)C(=O)N[C@H](C(=O)N1CCC[C@H]1C(=O)N[C@H](C(=O)N[C@@H](CCCCN)C(=O)N[C@@H](CC(C)C)C(=O)N[C@@H](CCCCNC(=O)COCCOCCNC(=O)COCCOCCNC(=O)CC[C@H](NC(=O)CCCCCCCCCCCCCCCCC(=O)O)C(=O)O)C(=O)N[C@@H](CCC(N)=O)C(=O)N[C@H](C(=O)N[C@@H](CC(C)C)C(=O)N[C@@H](CC(C)C)C(=O)N[C@@H](CCCCN)C(=O)N[C@@H](CCC(N)=O)C(=O)N[C@@H](CCC(=O)O)C(=O)N[C@@H](CCCNC(=N)N)C(=O)N[C@@H](CCC(N)=O)C(=O)N[C@@H](CCCCN)C(=O)NC(C)(C)C(=O)N[C@@H](CCC(N)=O)C(=O)N[C@@H](CCCNC(=N)N)C(=O)N[C@@H](CCC(=O)O)C(=O)N[C@@H](CCC(N)=O)C(=O)N[C@@H](C)C(=O)N[C@@H](CCC(=O)O)C(=O)N[C@H](C(=O)N[C@@H](CC(N)=O)C(=O)N[C@@H](CCCCN)C(=O)N[C@@H](CCC(N)=O)C(=O)N[C@H](C(=O)N[C@@H](CC(C)C)C(=O)N[C@@H](C)C(=O)N[C@@H](CCC(N)=O)C(=O)N[C@H](C(N)=O)C(C)C)[C@@H](C)CC)[C@@H](C)O)[C@@H](C)CC)[C@@H](C)CC)C(C)C)C(C)C` [compound 104] (H-IVLSLDVPIKLK([AEEA-AEEA-γGlu-C18 diacid])QILLKQERQK[Aib]QREQAETNKQILAQV-NH2), the values for the EC50 on CRF1R receptor and at human CRF2α receptor (setting [1]) were more than 100 nM and 0.32 nM, respectively. The compound also gave an Emax at CRF1R receptor of 3.7%.
For `CC[C@H](C)[C@H](N)C(=O)N[C@H](C(=O)N[C@@H](CC(C)C)C(=O)N[C@@H](CO)C(=O)N[C@@H](CC(C)C)C(=O)N[C@@H](CC(=O)O)C(=O)N[C@H](C(=O)N1CCC[C@H]1C(=O)N[C@H](C(=O)N[C@@H](CCCCN)C(=O)N[C@@H](CC(C)C)C(=O)N[C@@H](CCCCNC(=O)COCCOCCNC(=O)COCCOCCNC(=O)CC[C@H](NC(=O)CCCCCCCCCCCCCCCCC(=O)O)C(=O)O)C(=O)N[C@@H](CCC(N)=O)C(=O)N[C@H](C(=O)N[C@@H](CC(C)C)C(=O)N[C@@H](CC(C)C)C(=O)N[C@@H](CCC(=O)O)C(=O)N[C@@H](CCC(N)=O)C(=O)N[C@@H](CCC(=O)O)C(=O)N[C@@H](CCCNC(=N)N)C(=O)N[C@@H](CCC(N)=O)C(=O)N[C@@H](CCCCN)C(=O)NC(C)(C)C(=O)N[C@@H](CCC(N)=O)C(=O)N[C@@H](CCCNC(=N)N)C(=O)N[C@@H](CCC(N)=O)C(=O)N[C@@H](CCC(N)=O)C(=O)N[C@@H](C)C(=O)N[C@@H](CCC(=O)O)C(=O)N[C@H](C(=O)N[C@@H](CC(N)=O)C(=O)N[C@@H](CCCCN)C(=O)N[C@@H](CCC(N)=O)C(=O)N[C@H](C(=O)N[C@@H](CC(C)C)C(=O)N[C@@H](C)C(=O)N[C@@H](CCC(N)=O)C(=O)N[C@H](C(N)=O)C(C)C)[C@@H](C)CC)[C@@H](C)O)[C@@H](C)CC)[C@@H](C)CC)C(C)C)C(C)C` [compound 105] (H-IVLSLDVPIKLK([AEEA-AEEA-γGlu-C18 diacid])QILLEQERQK[Aib]QRQQAETNKQILAQV-NH2), the EC50 on CRF1R receptor is more than 100 nM; on human CRF2α receptor (setting [1]), 0.41 nM; at human CRF2α receptor (setting [2]), 15.3 nM. On CRF1R receptor, the Emax is 15.4%.
On the same counts, the results for `CC[C@H](C)[C@H](N)C(=O)N[C@H](C(=O)N[C@@H](CC(C)C)C(=O)N[C@@H](CO)C(=O)N[C@@H](CC(C)C)C(=O)N[C@@H](CC(=O)O)C(=O)N[C@H](C(=O)N1CCC[C@H]1C(=O)N[C@H](C(=O)N[C@@H](CCCCN)C(=O)N[C@@H](CC(C)C)C(=O)N[C@@H](CCCCNC(=O)COCCOCCNC(=O)COCCOCCNC(=O)CC[C@H](NC(=O)CCCCCCCCCCCCCCCCC(=O)O)C(=O)O)C(=O)N[C@@H](CCC(N)=O)C(=O)N[C@H](C(=O)N[C@@H](CC(C)C)C(=O)N[C@@H](CC(C)C)C(=O)N[C@@H](CCC(=O)O)C(=O)N[C@@H](CCC(N)=O)C(=O)N[C@@H](CCC(=O)O)C(=O)N[C@@H](CCCNC(=N)N)C(=O)N[C@@H](CCC(N)=O)C(=O)N[C@@H](CCCCN)C(=O)NC(C)(C)C(=O)N[C@@H](CCC(N)=O)C(=O)N[C@@H](CCCNC(=N)N)C(=O)N[C@@H](CCC(=O)O)C(=O)N[C@@H](CCC(N)=O)C(=O)N[C@@H](C)C(=O)N[C@@H](CCC(=O)O)C(=O)N[C@H](C(=O)N[C@@H](CC(N)=O)C(=O)N[C@@H](CCCCN)C(=O)N[C@@H](CCC(N)=O)C(=O)N[C@H](C(=O)N[C@@H](CC(C)C)C(=O)N[C@@H](CCC(=O)O)C(=O)N[C@@H](CCCNC(=N)N)C(=O)N[C@H](C(N)=O)C(C)C)[C@@H](C)CC)[C@@H](C)O)[C@@H](C)CC)[C@@H](C)CC)C(C)C)C(C)C` [compound 106] (H-IVLSLDVPIKLK([AEEA-AEEA-γGlu-C18 diacid])QILLEQERQK[Aib]QREQAETNKQILERV-NH2) are more than 100 nM, 0.53 nM, 13.2 nM and 5.1%.
